Reference: paper PMC4658637 (2015)

Legend:
[1] = system: SPR-c-kit2 (DNA, G4) GGGCGGGCGCGAGGGAGGGG; assay: SPR; settings: 100 mM K+ (KCl); 50 mM Tris-HCl, pH 7.2, 25 °C; Langmuir kinetic fit
[2] = system: c-kit2-Ap16 (DNA, G4, 2-aminopurine at 16) GGGCGGGCGCGAGGGAGGGG; assay: 2-aminopurine fluorescence titration; settings: 100 mM K+ (KCl); 10 mM Tris-HCl, pH 7.2; 1 μM DNA, 0-10 μM compound
[3] = system: HRAS-Ap21 (DNA, G4, 2-aminopurine at 21) TCGGGTTGCGGGCGCAGGGCACGGGCG; assay: 2-aminopurine fluorescence titration; settings: 100 mM K+ (KCl); 10 mM Tris-HCl, pH 7.2; 1 μM DNA, 0-10 μM compound
[4] = system: c-kit2-Ap4 (DNA, G4, 2-aminopurine at 4 (replaces C)) GGGCGGGCGCGAGGGAGGGG; assay: 2-aminopurine fluorescence titration; settings: 100 mM K+ (KCl); 10 mM Tris-HCl, pH 7.2; 1 μM DNA, 0-10 μM compound
[5] = system: HRAS-Ap7 (DNA, G4, 2-aminopurine at 7 (replaces T)) TCGGGTTGCGGGCGCAGGGCACGGGCG; assay: 2-aminopurine fluorescence titration; settings: 100 mM K+ (KCl); 10 mM Tris-HCl, pH 7.2; 1 μM DNA, 0-10 μM compound
[6] = system: c-kit2-Ap12 (DNA, G4, 2-aminopurine at 12) GGGCGGGCGCGAGGGAGGGG; assay: 2-aminopurine fluorescence titration; settings: 100 mM K+ (KCl); 10 mM Tris-HCl, pH 7.2; 1 μM DNA, 0-10 μM compound
[7] = system: TBA (DNA, G4) GGTTGGTGTGGTTGG; assay: fluorescence titration; settings: 100 mM K+ (KCl); 10 mM Tris-HCl, pH 7.2; much weaker light-up, up to 5 μM DNA
[8] = system: c-kit3 (DNA, G4) GGCGAGGAGGGGCGTGGCCGGC; assay: fluorescence titration; settings: 100 mM K+ (KCl); 10 mM Tris-HCl, pH 7.2; much weaker light-up, up to 5 μM DNA
[9] = system: KRAS (DNA, G4) AGGGCGGTGTGGGAAGAGGGAAGAGGGGGAGG; assay: fluorescence titration; settings: 100 mM K+ (KCl); 10 mM Tris-HCl, pH 7.2; strong light-up of 15 at 525 nm
[10] = system: bcl-2 (DNA, G4) GGGCGGGCGCGGGAGGAAGGGGGCGGG; assay: fluorescence titration; settings: 100 mM K+ (KCl); 10 mM Tris-HCl, pH 7.2; strong light-up of 15 at 525 nm
[11] = system: c-kit2 (DNA, G4) GGGCGGGCGCGAGGGAGGGG; assay: fluorescence titration; settings: 100 mM K+ (KCl); 10 mM Tris-HCl, pH 7.2; strong light-up of 15 at 525 nm
[12] = system: HRAS-Ap16 (DNA, G4, 2-aminopurine at 16) TCGGGTTGCGGGCGCAGGGCACGGGCG; assay: 2-aminopurine fluorescence titration; settings: 100 mM K+ (KCl); 10 mM Tris-HCl, pH 7.2; 1 μM DNA, 0-10 μM compound
[13] = system: htg22 (DNA, G4) AGGGTTAGGGTTAGGGTTAGGG; assay: fluorescence titration; settings: 100 mM K+ (KCl); 10 mM Tris-HCl, pH 7.2; much weaker light-up, up to 5 μM DNA
[14] = system: Pu22 (DNA, G4) TGAGGGTGGGTAGGGTGGGTAA; assay: fluorescence titration; settings: 100 mM K+ (KCl); 10 mM Tris-HCl, pH 7.2; strong light-up of 15 at 525 nm
[15] = system: HT-L2H (DNA, G4) TTGGGTTAGGGTTAGGGTTAGGGA; assay: fluorescence titration; settings: 100 mM K+ (KCl); 10 mM Tris-HCl, pH 7.2; much weaker light-up, up to 5 μM DNA
[16] = system: HRAS (DNA, G4) TCGGGTTGCGGGCGCAGGGCACGGGCG; assay: fluorescence titration; settings: 100 mM K+ (KCl); 10 mM Tris-HCl, pH 7.2; much weaker light-up, up to 5 μM DNA

Question: With `CCN(CC)CCCOc1ccc(-c2nc(-c3cc4ccc(N(CC)CC)cc4oc3=O)[nH]c2-c2ccc(OCc3cn(CCN4CCOCC4)nn3)cc2)cc1` as the compound, how does the KD [1] read?
Answer: 4.8 µM

Question: Which binding [2] does the source give for `CCN(CC)CCCOc1ccc(-c2nc(-c3cc4ccc(N(CC)CC)cc4oc3=O)[nH]c2-c2ccc(OCc3cn(CCCN4CCN(C)CC4)nn3)cc2)cc1` here?
Answer: yes

Question: And the binding [3]?
Answer: yes

Question: And the KD [1]?
Answer: 2.0 µM

Question: And the binding [4]?
Answer: yes

Question: What about the binding [5] of the same compound?
Answer: yes

Question: Which KD [1] does the source give for `CCN(CC)CCCOc1ccc(-c2nc(-c3cc4ccc(N(CC)CC)cc4oc3=O)[nH]c2-c2ccc(OCc3cn(CCCN(C)C)nn3)cc2)cc1` here?
Answer: 4.3 µM

Question: How did the KD [1] turn out when `CCN(CC)CCCOc1ccc(-c2nc(-c3cc4ccc(N(CC)CC)cc4oc3=O)[nH]c2-c2ccc(OCc3cn(CCN(C)C)nn3)cc2)cc1` was run?
Answer: 2.7 µM

Question: Which KD [1] does the source give for `CCN(CC)CCCOc1ccc(-c2nc(-c3cc4ccc(N(CC)CC)cc4oc3=O)[nH]c2-c2ccc(OCc3cn(CCCO)nn3)cc2)cc1` here?
Answer: 3.1 µM

Question: For `CCN(CC)CCCOc1ccc(-c2nc(-c3cc4ccc(N(CC)CC)cc4oc3=O)[nH]c2-c2ccc(OCc3cn(CCN4CCCCC4)nn3)cc2)cc1`, which KD [1] is on record?
Answer: 1.8 µM

Question: `C#CCOc1ccc(-c2[nH]c(-c3cc4ccc(N(CC)CC)cc4oc3=O)nc2-c2ccc(OCCCN(CC)CC)cc2)cc1` was tested. Which KD [1] did it give?
Answer: 13.9 µM

Question: With `CCN(CC)CCCOc1ccc(-c2nc(-c3cc4ccc(N(CC)CC)cc4oc3=O)[nH]c2-c2ccc(OCc3cn(CCC(=O)O)nn3)cc2)cc1` as the compound, how does the binding [2] read?
Answer: yes

Question: What about the binding [6] of the same compound?
Answer: yes

Question: What about the binding [3] of the same compound?
Answer: weak

Question: And the binding [7]?
Answer: weak

Question: What about the binding [8] of the same compound?
Answer: weak

Question: What about the binding [9] of the same compound?
Answer: yes

Question: And the KD [1]?
Answer: 6.1 µM

Question: And the binding [10]?
Answer: yes

Question: And the binding [11]?
Answer: yes

Question: What about the binding [12] of the same compound?
Answer: weak

Question: What about the binding [13] of the same compound?
Answer: weak

Question: What about the binding [4] of the same compound?
Answer: yes

Question: What about the binding [14] of the same compound?
Answer: yes

Question: And the binding [5]?
Answer: weak

Question: And the binding [15]?
Answer: weak

Question: And the binding [16]?
Answer: weak
